The values below come from patent publication US6369058B1 (New Millennium Pharmaceutical Research Inc., priority 1999, dated 2002).

For series [1] the following is noted: in vivo; cited from earlier work.
Series [2] is described as follows: Absorption of folic acid from the nasal cavity of rats (in vivo technique, spectrophotometric assay of nasal washings). The following applies: rat, intranasal 0.1 ml of folic acid solution (50 mg/10 ml, pH 8.3), nasal cavity washed with 3 ml water. As for the experimental part: Rats were fasted overnight prior to experimentation. Surgical procedures were performed under equithesin anesthesia (3 ml/kg, i.p.). An incision was made in the neck of each rat, and the trachea cannulated with polyethylene tubing (PF-260). A closed end tube was inserted through the esophagus to the posterior part of the nasal cavity to prevent drug from entering the esophagus. The nasopalatine passage was closed with an adhesive agent to prevent drainage of the drug from the nasal cavity to the mouth.
The solution was filtered. The final pH was 8.3.
The washings were placed in a spectrophotometer cell and the absorbance was measured.

Consider `Nc1c2c(nc3ccccc13)CCCC2` [tacrine, 1,2,3,4-tetrahydro-9-aminoacridine], for which, in series [1], the “Patients with abdominal cramping, nausea, vomiting, and diarrhea” value is on record as “up to one-third”; the “Patients with elevation of serum transaminases (hepatotoxicity)” value is given as “up to 20 % of patients”.
On to `Nc1nc(=O)c2nc(CNc3ccc(C(=O)NC(CCC(=O)O)C(=O)O)cc3)cnc2[nH]1` [folic acid, N-[4-[[(2-Amino-1,4-dihydro-4-oxo-6-pteridinyl)methly]amino]benzoyl]-L-glutamic acid], for which the “Concentration of folic acid in the nasal cavity” value in series [2] (time 0 min) worked out at 4.1 mg %; in series [2] (time 2 min), 3.8 mg %; in series [2] (time 5 min), 2.9 mg %; in series [2] (time 15 min), 2.6 mg %.
